Measured values: patent US12043599B2, “Herbicidal compounds” (SYNGENTA PARTICIPATIONS AG, priority 2018, dated 2024)

How the values were obtained:
Assay type in all cases: in vivo
Conditions in all cases: 250 g/h, evaluated after 13 days
Setaria faberi (SETFA) [1] = assay: Post-emergence herbicidal glasshouse test, percentage damage
Summary of the method: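 Wheat, barley and Setaria faberi were sprayed post-emergence after 8 days' growth (24/16 °C, 14 h light, 65% humidity) with compound in acetone/water (50:50) containing 0.5% Tween 20, at the indicated rates. On wheat, compounds were also applied with cloquintocet-mexyl at 50 g/ha. Damage was scored after 13 days on a five-point scale (5=80-100% to 1=0-19%).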

[2] = tested on: Echinochloa crus-galli (ECHCG); assay: as above
Summary of the method: (§1)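 A single spray at 250 g/h was given either to soil one day after sowing or to seedlings after eight days' growth. Vehicle was acetone/water (50:50) with 0.5% Tween 20. Thirteen days on, damage was rated in 20% bands, 1 (0-19%) to 5 (80-100%).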

Avena fatua (AVEFA) [3] = assay: as above
Summary of the method: as §1

Lolium perenne (LOLPE) [4] = assay: as above
Summary of the method: as §1

[5] = tested on: Alopecurus myosuroides (ALOMY); assay: as above
Summary of the method: as §1

[6] = tested on: Echinochloa crus-galli (ECHCG); assay: Pre-emergence herbicidal glasshouse test, percentage damage
Summary of the method: as §1

Avena fatua (AVEFA) [7] = assay: as above
Summary of the method: as §1

Lolium perenne (LOLPE) [8] = assay: as above
Summary of the method: as §1

[9] = tested on: Alopecurus myosuroides (ALOMY); assay: as above
Summary of the method: as §1

Setaria faberi (SETFA) [10] = assay: as above
Summary of the method: as §1

SMILES | SETFA POST percentage damage (five point scale) (Setaria faberi (SETFA) [1]) | ECHCG POST percentage damage (five point scale) [2] | AVEFA POST percentage damage (five point scale) (Avena fatua (AVEFA) [3]) | LOLPE POST percentage damage (five point scale) (Lolium perenne (LOLPE) [4]) | ALOMY POST percentage damage (five point scale) [5] | ECHCG PRE percentage damage (five point scale) [6] | AVEFA PRE percentage damage (five point scale) (Avena fatua (AVEFA) [7]) | LOLPE PRE percentage damage (five point scale) (Lolium perenne (LOLPE) [8]) | ALOMY PRE percentage damage (five point scale) [9] | SETFA PRE percentage damage (five point scale) (Setaria faberi (SETFA) [10])
CC#Cc1cc(C)c(C2C(=O)CC3(CCN(C(=O)NC(=O)c4cccnc4)CC3)CC2=O)c(C)c1 [Compound A145] | 5 (5=80-100%) | 5 (5=80-100%) | 5 (5=80-100%) | 5 (5=80-100%) | 5 (5=80-100%) | 5 (5=80-100%) | 2 (2=20-39%) | 4 (4=60-79%) | 3 (3=40-59%) | 5 (5=80-100%)
CC#Cc1cc(C)c(C2=C(OC(=O)OC)CC3(CCN(C(=O)OC(C)(C)C)CC3)CC2=O)c(C)c1 [Compound P21] | 5 (5=80-100%) | 5 (5=80-100%) | 5 (5=80-100%) | 5 (5=80-100%) | 5 (5=80-100%) | 5 (5=80-100%) | 4 (4=60-79%) | 5 (5=80-100%) | 5 (5=80-100%) | 5 (5=80-100%)
CC#Cc1cc(C)c(C2C(=O)CC3(CCN(S(=O)(=O)C4CC4)CC3)CC2=O)c(C)c1 [Compound A82] | 5 (5=80-100%) | 5 (5=80-100%) | 5 (5=80-100%) | 5 (5=80-100%) | 5 (5=80-100%) | 5 (5=80-100%) | 5 (5=80-100%) | 5 (5=80-100%) | 5 (5=80-100%) | 5 (5=80-100%)
CC#Cc1cc(C)c(C2=C(OC(=O)c3ccccn3)CC3(CCN(C(=O)c4ccccn4)CC3)CC2=O)c(C)c1 [Compound P25] | 5 (5=80-100%) | 5 (5=80-100%) | 5 (5=80-100%) | 5 (5=80-100%) | 5 (5=80-100%) | 5 (5=80-100%) | 5 (5=80-100%) | 5 (5=80-100%) | 5 (5=80-100%) | 5 (5=80-100%)
CC#Cc1cc(C)c(C2=C(OC(=O)OC)CC3(CCN(C(=O)c4cccnn4)CC3)CC2=O)c(C)c1 [Compound P30] | 5 (5=80-100%) | 5 (5=80-100%) | 5 (5=80-100%) | 5 (5=80-100%) | 5 (5=80-100%) | 5 (5=80-100%) | 5 (5=80-100%) | 5 (5=80-100%) | 5 (5=80-100%) | 5 (5=80-100%)
CC#Cc1cc(C)c(C2C(=O)CC3(CCN(C(=O)OC(C)(C)C)CC3)CC2=O)c(C)c1 [Compound A12, tert-butyl 9-(2,6-dimethyl-4-prop-1-ynyl-phenyl)-8,10-dioxo-3-azaspiro[5.5]undecane-3-carboxylate] | 5 (5=80-100%) | 5 (5=80-100%) | 5 (5=80-100%) | 5 (5=80-100%) | 5 (5=80-100%) | 5 (5=80-100%) | 4 (4=60-79%) | 5 (5=80-100%) | 4 (4=60-79%) | 5 (5=80-100%)
CC#Cc1cc(C)c(C2C(=O)CC3(CCN(C(=O)C4CC4)CC3)CC2=O)c(C)c1 [Compound A8, 3-(cyclopropanecarbonyl)-9-(2,6-dimethyl-4-prop-1-ynyl-phenyl)-3-azaspiro[5.5]undecane-8,10-dione] | 5 (5=80-100%) | 5 (5=80-100%) | 5 (5=80-100%) | 5 (5=80-100%) | 5 (5=80-100%) | 5 (5=80-100%) | 5 (5=80-100%) | 5 (5=80-100%) | 5 (5=80-100%) | 5 (5=80-100%)
CC#Cc1cc(C)c(C2=C(OC(=O)OCCOC)CC3(CCN(C(=O)OCCOC)CC3)CC2=O)c(C)c1 [Compound P52] | 5 (5=80-100%) | 5 (5=80-100%) | 5 (5=80-100%) | 5 (5=80-100%) | 5 (5=80-100%) | 5 (5=80-100%) | 5 (5=80-100%) | 5 (5=80-100%) | 5 (5=80-100%) | 5 (5=80-100%)
CC#Cc1cc(C)c(C2C(=O)CC3(CCN(C(=O)c4cnccn4)CC3)CC2=O)c(C)c1 [Compound A16] | 5 (5=80-100%) | 5 (5=80-100%) | 5 (5=80-100%) | 5 (5=80-100%) | 5 (5=80-100%) | 5 (5=80-100%) | 5 (5=80-100%) | 5 (5=80-100%) | 5 (5=80-100%) | 5 (5=80-100%)
CC#Cc1cc(C)c(C2=C(OC(=O)C(C)(C)C)CC3(CCN(C(=O)N(C)C(=O)C(C)(C)C)CC3)CC2=O)c(C)c1 [Compound P54] | 5 (5=80-100%) | 5 (5=80-100%) | 4 (4=60-79%) | 5 (5=80-100%) | 5 (5=80-100%) | 5 (5=80-100%) | 4 (4=60-79%) | 5 (5=80-100%) | 4 (4=60-79%) | 5 (5=80-100%)
CC#Cc1cc(C)c(C2C(=O)CC3(CCN(C(=O)c4ccc(C#N)nc4)CC3)CC2=O)c(C)c1 [Compound A191] | 5 (5=80-100%) | 5 (5=80-100%) | 5 (5=80-100%) | 5 (5=80-100%) | 5 (5=80-100%) | 5 (5=80-100%) | 4 (4=60-79%) | 5 (5=80-100%) | 2 (2=20-39%) | 5 (5=80-100%)
CC#Cc1cc(C)c(C2=C(OC(=O)OC)CC3(CCN(S(=O)(=O)C(F)(F)F)CC3)CC2=O)c(C)c1 [Compound P11] | 5 (5=80-100%) | 5 (5=80-100%) | 5 (5=80-100%) | 4 (4=60-79%) | 5 (5=80-100%) | 5 (5=80-100%) | 3 (3=40-59%) | 5 (5=80-100%) | 5 (5=80-100%) | 5 (5=80-100%)
CC#Cc1cc(C)c(C2C(=O)CC3(CCN(C(=O)c4cccc(C#N)n4)CC3)CC2=O)c(C)c1 [Compound A178] | 5 (5=80-100%) | 5 (5=80-100%) | 5 (5=80-100%) | 5 (5=80-100%) | 5 (5=80-100%) | 4 (4=60-79%) | 5 (5=80-100%) | 5 (5=80-100%) | 4 (4=60-79%) | 5 (5=80-100%)
